Data: patent US11041000B2, “Peptide inhibitors of interleukin-23 receptor and their use to treat inflammatory diseases” (priority 2019, dated 2021)
Bridge positions count the residues as written; N and C are the ends. Square brackets hold non-standard residues; d marks the D form. Peptide text beside a SMILES is read from it. Trp(7-Me) = Cc1cccc2c(C[C@H](N)C(=O)O)c[nH]c12; 2Nal = N[C@@H](Cc1ccc2ccccc2c1)C(=O)O; d2Nal = N[C@H](Cc1ccc2ccccc2c1)C(=O)O; AEF = NCCOc1ccc(C[C@H](N)C(=O)O)cc1; Cit = NC(=O)NCCC[C@H](N)C(=O)O; Pen = CC(C)(S)[C@H](N)C(=O)O; hLeu = CC(C)CC[C@H](N)C(=O)O; αMeK = C[C@](N)(CCCCN)C(=O)O; Aib = CC(C)(N)C(=O)O

Assays:
Assay type in all cases: in vitro ADME
[1] = Stability in cynomolgus monkey fecal homogenate; conditions: 20% fecal homogenate (supernatant), pH 6.8, 20% cynomolgus monkey fecal homogenate, anaerobic, 37° C., read-out: t½: Monkey Feces anaerobic (converted)
Description: (§1) Centrifuged the homogenate at 2800×g for 15 min. The supernatant is taken out and used for incubations. […] The final test compound concentration was 20 μM.

[2] = Stability in simulated intestinal fluid (SIF); conditions: simulated intestinal fluid with pancreatin, pH 6.8, 37° C., matrix is 100 fold dilution of standard SIF concentration; for SIF t½: 20 μM; for half-life at 20 μM: read-out: SIF t½ (converted)
Description: SIF was prepared by adding 6.8 g of monobasic potassium phosphate and 10.0 g of pancreatin to 1.0 L of water. After dissolution, the pH was adjusted to 6.8 using NaOH. DMSO stocks (2 mM) were first prepared for the test compounds. Aliquots of the DMSO solutions were dosed into 6 individual tubes, each containing 0.5 mL of SIF, which is pre-warmed to 37° C. The final test compound concentration was 20 μM. The vials were kept in a benchtop Thermomixer® for the duration of the experiment. At each timepoint (0, 5, 10, 20, 40, 60, or 360 minutes or 24 hours), 1.0 mL of acetonitrile containing 1% formic acid was added to one vial to terminate the reaction. Samples were stored at 4° C. until the end of the experiment. After the final timepoint is sampled, the tubes were mixed and then centrifuged at 3,000 rpm for 10 minutes. Aliquots of the supernatant were removed, diluted 1:1 into distilled water containing internal standard, and analyzed by LCMS/MS. Percent remaining at each timepoint was calculated based on the peak area response ratio of test to compound to internal standard. Time 0 was set to 100%, and all later timepoints were calculated relative to time 0. Half-lives were calculated by fitting to a first-order exponential decay equation using Graphpad.

[3] = Stability in rat plasma; conditions: both sexes, SD rat plasma, EDTA, 37° C., read-out: t½: Rat Plasma EDTA (converted)
Description: Peptides of interest (20 μM) were incubated with pre-warmed rat plasma (SD rat, mixed gender pooled, EDTA, filtered through 0.22 μm, BioreclamationIVT) at 37° C. […] Quenched samples were stored at 4° C. until the end of the experiment and centrifuged at 4,000 rpm for 10 minutes. The supernatant were diluted 1:1 with deionized water and analyzed using LC-MS. Percentage remaining at each time point was calculated based on the peak area ratio (analyte over internal standard) relative to the initial level at time zero. Half-lives were calculated by fitting to a first-order exponential decay equation using GraphPad.

[4] = Stability in human fecal homogenate; conditions: 20% fecal homogenate (supernatant), pH 6.8, 20% human fecal homogenate, anaerobic, 37° C., read-out: t½: Human Feces anaerobic (converted)
Description: as §1

Row | SMILES | half-life at 20 μM [1] [h] | SIF t½ [2] [h] | half-life at 20 μM [3] [h] | half-life at 20 μM [4] [h] | half-life at 20 μM [2] [h]
1 | CC(=O)NCCCC[C@@H]1NC(=O)[C@H](Cc2c[nH]c3c(C)cccc23)NC(=O)[C@H]([C@@H](C)O)NC(=O)[C@H](CCC(C)C)NC(=O)[C@@H](NC(C)=O)C(C)(C)SSC(C)(C)[C@@H](C(=O)N[C@@H](Cc2ccc(OCCN)cc2)C(=O)N[C@@H](Cc2ccc3ccccc3c2)C(=O)N[C@@](C)(CCCCN)C(=O)N[C@@H](CCCCNC(C)=O)C(=O)N[C@@H](CC(N)=O)C(=O)N[C@H](CC(C)C)C(N)=O)NC1=O [compound 337] (Ac-[Pen][hLeu]T[Trp(7-Me)]K(Ac)[Pen][AEF][2Nal][αMeK]K(Ac)N[dL]-NH2; disulfide 1-6) | > 24 | 24 | > 24 | > 24 | –
2 | CC(=O)NCCCC[C@@H]1NC(=O)[C@H](Cc2c[nH]c3c(C)cccc23)NC(=O)[C@H]([C@@H](C)O)NC(=O)[C@H](CO)NC(=O)[C@@H](NC(C)=O)C(C)(C)SSC(C)(C)[C@@H](C(=O)N[C@@H](Cc2ccc(OCCN)cc2)C(=O)N[C@@H](Cc2ccc3ccccc3c2)C(=O)N[C@@](C)(CCCCN)C(=O)N[C@@H](CCCCNC(C)=O)C(=O)N[C@@H](CC(N)=O)C(=O)N[C@H](CC(C)C)C(N)=O)NC1=O [compound 334] (Ac-[Pen]ST[Trp(7-Me)]K(Ac)[Pen][AEF][2Nal][αMeK]K(Ac)N[dL]-NH2; disulfide 1-6) | > 24 | 24 | > 24 | > 24 | –
3 | CC(=O)NCCCC[C@H](NC(=O)[C@](C)(CCCCN)NC(=O)[C@H](Cc1ccc2ccccc2c1)NC(=O)[C@H](Cc1ccc(OCCN)cc1)NC(=O)[C@H]1NC(=O)[C@H](CCCNC(N)=O)NC(=O)[C@H](Cc2c[nH]c3c(C)cccc23)NC(=O)[C@H]([C@@H](C)O)NC(=O)[C@H](CC(N)=O)NC(=O)[C@@H](NC(C)=O)C(C)(C)SSC1(C)C)C(=O)N[C@@H](CC(N)=O)C(=O)NC(C)(C)C(=O)N[C@H](Cc1ccc2ccccc2c1)C(N)=O [compound 348] (Ac-[Pen]NT[Trp(7-Me)][Cit][Pen][AEF][2Nal][αMeK]K(Ac)N[Aib][d2Nal]-NH2; disulfide 1-6) | > 24 | – | > 24 | > 24 | 13
4 | CC(=O)NCCCC[C@@H]1NC(=O)[C@H](Cc2c[nH]c3c(C)cccc23)NC(=O)[C@H]([C@@H](C)O)NC(=O)[C@H](CC(N)=O)NC(=O)[C@@H](NC(C)=O)C(C)(C)SSC(C)(C)[C@@H](C(=O)N[C@@H](Cc2ccc(OCCN)cc2)C(=O)N[C@@H](Cc2ccc3ccccc3c2)C(=O)N[C@@](C)(CCCCN)C(=O)N[C@@H](CCCCNC(C)=O)C(=O)N[C@@H](CO)C(=O)N[C@H](CCCCN)C(N)=O)NC1=O [compound 352] | > 24 | – | > 24 | > 24 | 7
5 | CC(=O)NCCCC[C@H](NC(=O)[C@](C)(CCCCN)NC(=O)[C@H](Cc1ccc2ccccc2c1)NC(=O)[C@H](Cc1ccc(OCCN)cc1)NC(=O)[C@H]1NC(=O)[C@H](CCCNC(N)=O)NC(=O)[C@H](Cc2c[nH]c3c(C)cccc23)NC(=O)[C@H]([C@@H](C)O)NC(=O)[C@H](CC(N)=O)NC(=O)[C@@H](NC(C)=O)C(C)(C)SSC1(C)C)C(=O)N[C@@H](CC(N)=O)C(=O)NC(C)(C)C(=O)N[C@H](Cc1ccc(O)cc1)C(N)=O [compound 347] (Ac-[Pen]NT[Trp(7-Me)][Cit][Pen][AEF][2Nal][αMeK]K(Ac)N[Aib][dY]-NH2; disulfide 1-6) | > 24 | – | > 24 | > 24 | 12
6 | CC(=O)NCCCC[C@H](NC(=O)[C@](C)(CCCCN)NC(=O)[C@H](Cc1ccc2ccccc2c1)NC(=O)[C@H](Cc1ccc(OCCN)cc1)NC(=O)[C@H]1NC(=O)[C@H](CCCNC(N)=O)NC(=O)[C@H](Cc2c[nH]c3c(C)cccc23)NC(=O)[C@H]([C@@H](C)O)NC(=O)[C@H](CC(N)=O)NC(=O)[C@@H](NC(C)=O)C(C)(C)SSC1(C)C)C(=O)N[C@@H](CC(N)=O)C(=O)NC(C)(C)C(=O)N[C@H](Cc1ccccc1)C(N)=O [compound 346] (Ac-[Pen]NT[Trp(7-Me)][Cit][Pen][AEF][2Nal][αMeK]K(Ac)N[Aib][dF]-NH2; disulfide 1-6) | > 24 | – | 24 | > 24 | 19
7 | CC(=O)NCCCC[C@@H]1NC(=O)[C@H](Cc2c[nH]c3c(C)cccc23)NC(=O)[C@H]([C@@H](C)O)NC(=O)[C@H](CC(N)=O)NC(=O)[C@@H](NC(C)=O)C(C)(C)SSC(C)(C)[C@@H](C(=O)N[C@@H](Cc2ccc(OCCN)cc2)C(=O)N[C@@H](Cc2ccc3ccccc3c2)C(=O)N[C@@](C)(CCCCN)C(=O)N[C@@H](CCCCNC(=O)CC(F)(F)F)C(=O)N[C@@H](CC(N)=O)C(=O)N[C@H](CC(C)C)C(N)=O)NC1=O [compound 360] | > 24 | 24 | > 24 | > 24 | –
8 | CC(=O)NCCCC[C@@H]1NC(=O)[C@H](Cc2c[nH]c3c(C)cccc23)NC(=O)[C@H]([C@@H](C)O)NC(=O)[C@H](CC(N)=O)NC(=O)[C@@H](NC(C)=O)C(C)(C)SSC(C)(C)[C@@H](C(=O)N[C@@H](Cc2ccc(OCCN)cc2)C(=O)N[C@@H](Cc2ccc3ccccc3c2)C(=O)N[C@@](C)(CCCCN)C(=O)N[C@@H](CCCCNC(=O)[C@H](C)N)C(=O)N[C@@H](CC(N)=O)C(=O)N[C@H](CC(C)C)C(N)=O)NC1=O [compound 355] | > 24 | – | > 24 | 12 | 8
9 | CC(=O)NCCCC[C@@H]1NC(=O)[C@H](Cc2c[nH]c3c(C)cccc23)NC(=O)[C@H]([C@@H](C)O)NC(=O)[C@H](CC(N)=O)NC(=O)[C@@H](NC(C)=O)C(C)(C)SSC(C)(C)[C@@H](C(=O)N[C@@H](Cc2ccc(OCCN)cc2)C(=O)N[C@@H](Cc2ccc3ccccc3c2)C(=O)N[C@@](C)(CCCCN)C(=O)N[C@@H](CCCCNC(=O)CC(C)C)C(=O)N[C@@H](CC(N)=O)C(=O)N[C@H](CC(C)C)C(N)=O)NC1=O [compound 356] | > 24 | – | > 24 | > 24 | 10
10 | CC(=O)NCCCC[C@H](NC(=O)[C@](C)(CCCCN)NC(=O)[C@H](Cc1ccc2ccccc2c1)NC(=O)[C@H](Cc1ccc(OCCN)cc1)NC(=O)[C@H]1NC(=O)[C@H](CCCCNC(=O)[C@H](C)N)NC(=O)[C@H](Cc2c[nH]c3c(C)cccc23)NC(=O)[C@H]([C@@H](C)O)NC(=O)[C@H](CC(N)=O)NC(=O)[C@@H](NC(C)=O)C(C)(C)SSC1(C)C)C(=O)N[C@@H](CC(N)=O)C(=O)N[C@H](CC(C)C)C(N)=O [compound 314] | > 24 | 24 | > 24 | > 24 | –
11 | COc1cccc2c(C[C@@H]3NC(=O)[C@H]([C@@H](C)O)NC(=O)[C@H](CC(N)=O)NC(=O)[C@@H](NC(C)=O)C(C)(C)SSC(C)(C)[C@@H](C(=O)N[C@@H](Cc4ccc(OCCN)cc4)C(=O)N[C@@H](Cc4ccc5ccccc5c4)C(=O)N[C@@](C)(CCCCN)C(=O)N[C@@H](CCCCNC(C)=O)C(=O)N[C@@H](CC(N)=O)C(=O)N[C@H](CCCCN)C(N)=O)NC(=O)[C@H](CCC(N)=O)NC3=O)c[nH]c12 [compound 297] | > 24 | 24 | > 24 | > 24 | –
